Tests used:
[1] = test system: gp145^trkB; experiment: gp145^trkB tyrosine phosphorylation in trkB-expressing NIH 3T3 cells (pJM8 lines), immunoprecipitation and α-Ptyr Western; format: cell-based, rat; settings: for tyrosine phosphorylation of gp145^trkB: pJM8 trkB-expressing NIH 3T3 cells, 100 ng/ml factor, 5 min; for time to detection of trkB tyrosine phosphorylation / time to maximal levels of trkB tyrosine phosphorylation / concentration giving maximal gp145^trkB phosphorylation: pJM8-3 cells; for time to detection of trkB tyrosine phosphorylation / time to maximal levels of trkB tyrosine phosphorylation: 100 ng/ml; for concentration giving maximal gp145^trkB phosphorylation: dose response 0.1 to 250 ng/ml
Procedure: A 4.8 kb cDNA encompassing the coding domain of rat trkB (Middlemas et al., (1991)) was cloned into the pMEX plasmid (pJM8) downstream of the MSV promoter. NIH 3T3 cells were cotransfected with the pJM8 plasmid and a plasmid containing the neomycin phosphotransferase gene (L. F. Parada et al., Nature 312:649-651 (1984)), and G418-resistant colonies were selected. PC12 cells (Greene and Tischler, 1976) were grown in DMEM with 10% horse serum and 5% fetal calf serum. NIH 3T3 cells and the derivative cells lines were maintained in DMEM medium containing 10% calf serum. All cells were maintained in a humidified incubator at 37° C. in 5% CO2.
Approximately 10^7 cells were treated at 37° C. for 5 min with 100 ng/ml growth factors or at the concentrations and lengths of time noted in the text. NP-40 plate lysis and gp145^trkB immunoprecipitation with anti-serum 443 were performed as previously described (Kaplan et al., (1990), (1991)). The phosphotyrosine content was analyzed by Western transfer using monoclonal antibody 4G10 as previously described (Morrison et al., (1989)).
The product of the trk proto-oncogene (gp140^proto-trk) is tyrosine phosphorylated in response to NGF in PC12 cells, NGF-responsive neuroblastoma cells, heterologous fibroblasts and Xenopus oocytes (Kaplan et al., (1991); A. R. Nebreda et al., Science 252:558-560 (1991); Klein et al., (1991)). Next it was examined whether NGF elicited tyrosine phosphorylation of gp145^trkB in trkB-expressing NIH 3T3 cells. Cell line pJM8-3 was treated with high concentrations of NGF (100 ng/ml) for 5 minutes. The cells were lysed, immunoprecipitated with anti-trkB antiserum 443, transferred to nitrocellulose filters and probed with anti-phosphotyrosine (α-Ptyr) antibodies. As a negative control, untransfected NIH-3T3 cells were treated in parallel, while PC12 cells were used as a positive control for NGF responsiveness (Kaplan et al., (1991)).
BDNF and NT-3 are neurotrophic factors that display many functional and structural features that are reminiscent of NGF. The genes encoding BDNF and NT-3 have recently been cloned and used to express high levels of the biologically active factors in pure form (A. Rosenthal et al., Neuron 4:773 (1990)). It was tested whether these NGF-related neurotrophic factors would stimulate phosphorylation of the trkB glycoprotein by exposing the pJM-8 cell lines to 100 ng/ml of NGF, BDNF, or NT-3 (~4 nM) for 5 minutes. The cells were then lysed and the lysates incubated with a trkB anti-peptide antiserum (443) with or without excess peptide. After transfer to nitrocellulose filters, the trkB proteins were probed with an anti-phosphotyrosine (α-ptyr) monoclonal antibody (FIG. 10) (Kaplan et al. (1991)). […] Thus, both neurotrophic factors NT-3 and BDNF can elicit tyrosine phosphorylation of gp145^trkB in a manner similar to that observed for NGF stimulation of the trk receptor. Similar results have been obtained with NT-3 and BDNF in Rat2 cells expressing trkB.
Having detected gp145^trkB phosphorylation in response to BDNF and NT-3, it was next determined whether unrelated polypeptide growth factors were capable of eliciting a similar response. Platelet-derived growth factor (PDGF; 100 ng/ml), epidermal growth factor (EGF; 100 ng/ml), insulin (100 ng/ml), and basic fibroblast growth factor (bFGF; 100 ng/ml), were added independently to exponentially growing cultures of pJM8-3 cells.
The previous studies were done in the presence of high concentrations of neurotrophic factors. Dose response experiments were next performed to determine the range of concentrations at which phosphorylation of the trkB receptor was stimulated by NT-3 or BDNF. Cells were incubated with quantities of NT-3 or BDNF ranging from 0.1 ng/ml to 250 ng/ml and treated as described in FIG. 12. […]

[2] = target: T1, gp140^prototrk (Rattus norvegicus, UniProt P35739); experiment: trk tyrosine phosphorylation in PC12 cells treated with NGF (32P labelling / Ptyr immunoblot of trk immunoprecipitates); format: cell-based; settings: 15 min at 37° C., 100 ng/ml FGF or EGF, 100 nM insulin, 1 μg/ml PMA
T1 construct: tyrosine phosphorylation in response to NGF addition to PC12 cells; endogenous in cells; host or cells: PC12 cells
T1 sequence (P35739 33-799): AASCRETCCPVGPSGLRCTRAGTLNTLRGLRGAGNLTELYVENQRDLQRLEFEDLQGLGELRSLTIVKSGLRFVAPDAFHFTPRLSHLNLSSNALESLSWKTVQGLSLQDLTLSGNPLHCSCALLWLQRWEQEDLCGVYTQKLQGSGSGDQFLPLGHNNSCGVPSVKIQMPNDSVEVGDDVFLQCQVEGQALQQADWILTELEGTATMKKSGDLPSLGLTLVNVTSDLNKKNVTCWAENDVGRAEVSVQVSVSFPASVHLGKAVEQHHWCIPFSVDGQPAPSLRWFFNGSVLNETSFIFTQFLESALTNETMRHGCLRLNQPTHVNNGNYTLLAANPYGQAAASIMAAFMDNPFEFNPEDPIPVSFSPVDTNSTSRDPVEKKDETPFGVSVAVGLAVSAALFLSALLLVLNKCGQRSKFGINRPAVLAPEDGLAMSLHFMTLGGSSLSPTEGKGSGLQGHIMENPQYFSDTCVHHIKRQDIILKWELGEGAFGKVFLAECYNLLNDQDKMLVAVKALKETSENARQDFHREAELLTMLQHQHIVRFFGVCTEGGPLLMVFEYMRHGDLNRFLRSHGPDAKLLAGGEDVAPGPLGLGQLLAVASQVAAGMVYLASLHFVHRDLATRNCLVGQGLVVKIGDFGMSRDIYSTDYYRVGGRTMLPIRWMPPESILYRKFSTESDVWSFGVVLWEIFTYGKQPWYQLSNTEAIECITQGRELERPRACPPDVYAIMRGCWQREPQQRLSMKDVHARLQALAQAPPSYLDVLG
Procedure: FIGS. 1A-C show the tyrosine phosphorylation of gp140trk in PC12 cells and trk-expressing NIH-3T3 cells treated with NGF. FIG. 1A, gp140trk immunoprecipitated from PC12 cells or trk-expressing 3T3 cells labeled with ^32 P-orthophosphate. Immunoprecipitates were prepared with rabbit anti-trk antisera 43-4 (D. Martin-Zanca et al., Mol Cell. Biol. 9:24-33 (1989)) from lysates prepared from 3T3 cells expressing the rat trk gene (trk 3T3) (lane 1) or PC12 cells treated for 5 min with 100 ng/ml NGF at 37° C. (lanes 2 and 4) or mock treated (lane 3). The immunoprecipitate shown in lane 2 was prepared in the presence of the peptide used to generate the rabbit 43-4 trk antibody (Martin-Zanca et al., (1989)). Shown in FIG. 1B is the phosphoamino acid analysis of trk proteins phosphorylated in vitro in p140trk immunoprecipitates from NGF treated PC12 cells in vivo from NGF treated (+) or untreated (-) PC12 cells, or in vivo from trk 3T3 cells. The positions of phosphoserine (S), phosphothreonine (T), and phosphotyrosine (Y) are indicated. FIG. 1C, trk proteins from trk 3T3 cells phosphorylated […]. In lanes 1-3, gp140trk immunoprecipitates were probed with P-tyr antibodies. In lanes 4-6, gp140trk proteins were phosphorylated in vitro in kinase assays. Cells were treated with suramin (lanes 2 and 5) or with 500 ng/ml NGF for 10 min following suramin treatment. The band migrating at 110 kDa is a glycosylation precursor of gp140^prototrk (Martin-Zanca et al., (1989)). The band at the bottom of the figure is IgG. Molecular weight markers in kDa are indicated.
rtrk 3T3 cells were generated by CaPO4 mediated transfection of a rat trk cDNA into NIH-3T3 cells. Rat trk cDNAs were obtained from an embryonic rat DRG cDNA library. The longest trk cDNA obtained (2.4 kbp) was missing approximately 150 bp of the coding region as compared to available mouse and human trk sequence. The missing bases plus minimal (~50 bp) 5' flanking non-coding sequences were replaced from mouse first coding exon sequences and the reconstructed gene was placed downstream of an MSV-LTR. PC12 cells or rtrk 3T3 cells (2×10^7) were labeled with ^32 P orthophosphate (1 mCi.ml in 4 ml) for 4 hr at 37° C. Cells were treated with NGF for the indicated times, washed, lysed in buffer containing 1% NP40, and the lysates immunoprecipitated with trk antibody 43-4 (D. R. Kaplan et al., Cell 61:125-133 (1990)) and electrophoresed on 7.5% SDS-PAGE gels as previously described (Kaplan et al., (1990)). For b, the phosphorylated trk bands were eluted from the gel and phosphoamino acid analysis performed as described (B. M. Sefton et al., J. Cell 24:165-174 (1981)). gp140trk protein from NGF treated PC12 cells was phosphorylated in vitro. For c, rtrk 3T3 cells were treated with 1 mM suramin in Dulbecco's Modified Eagle Medium (DMEM) for 2 h or mock treated. Following extensive washing of the cells with DMEM, NGF was added for the time indicated. Cells were lysed and the lysates were immunoprecipitated with trk antibody. Immunoprecipitates were either subjected to immunoblot analysis with the phosphotyrosine (Ptyr) monoclonal antibody 4G10 (Lanes 1-3), or were analyzed in kinase assays. (D. K. Morrison, et al. Cell 58:649-657 (1989) and Kaplan et al., (1990)). Similar amounts of trk protein were present in each lane.
FIGS. 2A-C. Time course, growth factor specificity, and dose response of trk tyrosine phosphorylation in PC12 cells. A, Time course of trk tyrosine phosphorylation. Cells (2×10^7) were treated with 50 ng/ml NGF at 37° C. B, Effects of growth and differentiation factors on trk tyrosine phosphorylation. Cells were treated with 100 ng/ml NGF, 100 ng/ml basic fibroblast growth factor (FGF) (Boehringer Mannheim Biochemicals), 100 ng/ml epidermal growth factor (EGF) (Upstate Biotechnology, Inc.), 100 nM insulin (Sigma), or 1 μg/ml phorbal 12-myristate […] (PMA) (Sigma) for 15 min. at 37° C. C, dose response of trk tyrosine phosphorylation. […]

[3] = target: p140^prototrk (Rattus norvegicus, UniProt P35739); experiment: trk tyrosine phosphorylation in rtrk-3T3 cells, suramin treatment followed by NGF (in vivo and immune complex kinase assays); format: cell-based; settings: rtrk-3T3 cells, 1 mM suramin for 2 h
p140^prototrk, sequence (P35739 33-799): as above
Procedure: rtrk 3T3 cells were generated by CaPO4 mediated transfection of a rat trk cDNA into NIH-3T3 cells. […] PC12 cells or rtrk 3T3 cells (2×10^7) were labeled with ^32 P orthophosphate (1 mCi.ml in 4 ml) for 4 hr at 37° C. […] For c, rtrk 3T3 cells were treated with 1 mM suramin in Dulbecco's Modified Eagle Medium (DMEM) for 2 h or mock treated. Following extensive washing of the cells with DMEM, NGF was added for the time indicated. Cells were lysed and the lysates were immunoprecipitated with trk antibody. Immunoprecipitates were either subjected to immunoblot analysis with the phosphotyrosine (Ptyr) monoclonal antibody 4G10 (Lanes 1-3), or were analyzed in kinase assays. […] Similar amounts of trk protein were present in each lane.

[4] = test system: trkB; experiment: Growth factor stimulation of trkB transfected 3T3 cells (pJM8-3), COS cell supernatants, Ptyr blot; format: cell-based; settings: trkB-expressing 3T3 cells (pJM8-3), 100 μl/ml NT-3 COS cell supernatant, 10 minutes at 37° C.
Procedure: To study the expression of trkB in transfected cell lines, full length trkB cDNAs were cloned into CMV and MuLV LTR expression vectors and transfected into NIH-3T3 fibroblasts, PC 12 pheochromocytoma cells and NR18 cells (a derivative of PC12 cells). Stable G418 resident clones were picked and expanded. Assays to detect cell lines expressing trkB were performed by detergent lysis of the cells, followed by WGA-sepharose adsorption. The adsorbed material was analyzed by SDS-PAGE on 7.5% gels, transferred to nitrocellulose and probed with antisera 442, a trkB specific rabbit antisera. The Western blots contained a WGA-sepharose extract of mouse brain as a control and BIORAD prestained molecular weight standards (200, 116, 80 and 43 kDa).
To study growth factor stimulation in cells transfected with trkB, NIH 3T3 trk transfected 3T3 (pJM7-23), trkB transfected 3T3 cells (pJM8-3) and non-transfected 3T3 cells (control cells) were exposed to media or media containing 100 μl/ml of NGF-COS cell supernatant, 100 μl/ml NT-3 COS cell supernatant, 5 μl/ml human platelet extract, or 50 μl/ml human platelet extract, for 10 minutes at 37° C. The plates were rinsed, lysed, and the trk or trkB was immunoprecipitated with rabbit antisera 443 and protein A Sepharose in the presence or absence of 10 μg/ml blocking peptide. […]

Molecule | tyrosine phosphorylation of gp145^trkB [1] | induction of trk tyrosine phosphorylation by growth and differentiation factors [2] | other results
PDGF [reference compound] | No tyrosine-phosphorylated gp145^trkB was detected | – | –
insulin: insulin (Sigma) [reference compound] | No tyrosine-phosphorylated gp145^trkB was detected | failed to induce | –
EGF: epidermal growth factor (Upstate Biotechnology, Inc.) [reference compound] | No tyrosine-phosphorylated gp145^trkB was detected | failed to induce | –
basic FGF: basic fibroblast growth factor (Boehringer Mannheim Biochemicals) [reference compound] | No tyrosine-phosphorylated gp145^trkB was detected | failed to induce | –
BDNF: NGF related neurotrophic factor, brain-derived neurotrophic factor | strong phosphorylation | – | time to detection of trkB tyrosine phosphorylation [1]: one; time to maximal levels of trkB tyrosine phosphorylation [1]: ≤ 5 min; concentration giving maximal gp145^trkB phosphorylation [1]: 50 ng/mL
CCCCCCCCCCCCCC(=O)O[C@@H]1[C@@H](C)[C@@]2(O)[C@@H](C=C(CO)C[C@]3(O)C(=O)C(C)=C[C@@H]23)[C@@H]2C(C)(C)[C@]12OC(C)=O [PMA, phorbal 12-myristate 12-acetate, reference compound] | – | failed to induce | –
Cc1ccc(C(=O)Nc2ccc(S(=O)(=O)O)c3cc(S(=O)(=O)O)cc(S(=O)(=O)O)c23)cc1NC(=O)c1cccc(NC(=O)Nc2cccc(C(=O)Nc3cc(C(=O)Nc4ccc(S(=O)(=O)O)c5cc(S(=O)(=O)O)cc(S(=O)(=O)O)c45)ccc3C)c2)c1 [suramin, reference compound] | – | – | tyrosine phosphorylation of p140^prototrk in vivo and in immune complex kinase assays [3]: markedly reduced
NT-3: NGF related neurotrophic factor neurotrophin-3; HPLC-purified from Genentech or as COS cell supernatant (protein, UniProt P20783 139-257, looked up) Neurotrophin-3: YAEHKSHRGEYSVCDSESLWVTDKSSAIDIRGHQVTVLGEIKTGNSPVKQYFYETRCKEARPVKNGCRGIDDKHWNSQCKTSQTYVRALTSENNKLVGWRWIRIDTSCVCALSRKIGRT | strong phosphorylation | – | stimulation of trkB tyrosine phosphorylation [4]: stimulated; time to detection of trkB tyrosine phosphorylation [1]: one; time to maximal levels of trkB tyrosine phosphorylation [1]: ≤ 5 min; concentration giving maximal gp145^trkB phosphorylation [1]: 50 ng/mL
